The IC50 is the concentration that gives 50% inhibition. As usually defined, the inhibition is the change of the read-out against control, counted positive when it falls. Low values mean a weak effect, high ones a strong effect.

The test concerns SRS-A synthesis in rat peritoneal cells. Nature of the test: Inhibition of the in vitro synthesis of SRS-A in rat peritoneal cells (ionophore A23187 challenge; SRS-A quantitated by guinea pig ileum bioassay). The class given is cell-based, rat (male Sprague-Dawley). As to conditions: for IC50: concentration of test drug which inhibits the synthesis of SRS-A by 50%, from plot of mean percent inhibition versus drug concentration; for inhibition at 10 µM: inhibition of SRS-A synthesis, 10 μM test drug, 10 min preincubation at 37° C., challenge with 5×10^-7 M ionophore A23187, mean percent inhibition. An excerpt: Inhibition of the In Vitro Synthesis of SRS-A in Rat Peritoneal Cells
To study the effect of drugs on SRS-A synthesis in rat peritoneal cells, these cells (including mast cells, monocytes, eosinophils and neutrophils)were isolated from male Sprague-Dawley rats (Charles River Laboratories) weighing 180-220 g by the lavage procedure described by Herzig, D. G. and Dusner, E. J. Journal of Pharmacology and Experimental Therapeutics, 194, 457-460 (1975) with the exception that Hanks balanced salt solution used in these experiments was adjusted to pH 6.9 with 5% (V/V) of 0.1 M aqueous phosphate buffer and contained 50 mg/ml sodium heparin. After removal from the peritoneal cavity of rats, the cells were subsequently isolated by centrifugation at 400×gravity for 10 minutes at 4° C. and resuspended to a concentration of about 2,000,000 cells per ml in Hanks buffer.
Samples for evaluation were prepared by adding various concentrations of test drugs to 2 ml aliquots of resuspended cells in Hanks buffer. The 2 ml samples used for control contained 2 ml aliquots of resuspended cells in Hanks buffer without drugs. All of the above samples (2 ml final volume) were preincubated at 37° C. for 10 minutes in the presence of varying concentrations of test drug prior to challenge with 5×10^-7 M ionophore A23187. This ionophore is disclosed in Burka and Flower, Br. J. Pharmacology 65: 35-41 (1979). Antibiotic A 23187 was used as a probe for the study of calcium and function in biological systems. After ionophore challenge, SRS-A was synthesized in the samples by the cells for 10 minutes (at 37° C.) after which this synthesis was terminated by placing the samples in a boiling water bath for 10 minutes followed by centrifugation at 2,000×g (10 minutes) at 4° C. to remove coagulated protein and cellular debris. The SRS-A present in the resulting supernatants was quantitated by a bioassay using a guinea pig ileum as described in Orange, and Austen, Adv. Immunol, 10:105-144 (1969). For this bioassay, a 1.5 cm segment of ileum was removed from animals weighing 300 to 400 g and resuspended in an organ bath containing 10 ml of Tyrodes solution with 10^-6 M atropine sulfate and 10^-6 M pyrilamine maleate. The bath was maintained at 37° C. and aerated with a mixture of 95% O2 and 5% CO2. The concentration of SRS-A in the experimental samples was determined by a comparison of isotonic contraction responses elicited by the samples with those obtained with varying amounts of an SRS-A standard procedures of Orange, R. R. and Austen, K. F. Adv. Immunol. 10:105-144 (1969) against histamine (1 unit of SRS-A being that amount which gives a contractile response similar to that of […]). […]
The mean percent inhibition [formula] at each concentration of the various test drugs was calculated. […]

As for `CCCCCCCC/C=C\C(C)(C)/C=C\C/C=C\CCCC(=O)O` [(all Z)-10,10-dimethyl-5,8,11-eicosatrienoic acid], the IC50 was less than 10000 nM and the inhibition at 10 µM is 100%.

For `CCCCC/C=C\C/C=C\C(C)(C)/C=C\C/C=C\CCCC(=O)O` [(all Z)-10,10-dimethyleicosa-5,8,11,14-tetraenoic acid], the IC50 was in the range of 1000 to 3000 nM and the inhibition at 10 µM stood at 99 ± 1%.
